Reference: BigSolDB 2.1

Settings: in water

O=S(=O)([O-])c1ccc(Nc2nc(Nc3ccc(/C=C/c4ccc(Nc5nc(Nc6ccc(S(=O)(=O)[O-])cc6)nc(N6CCOCC6)n5)cc4S(=O)(=O)[O-])c(S(=O)(=O)[O-])c3)nc(N3CCOCC3)n2)cc1.[Na+].[Na+].[Na+].[Na+]
Settings | solubility (mole fraction)
273.15 K | 0.00029
278.45 K | 0.000399
283.35 K | 0.000545
288.75 K | 0.000757
293.25 K | 0.00099
298.75 K | 0.00137
303.15 K | 0.00179
307.55 K | 0.00219
310.75 K | 0.00264
313.95 K | 0.00319
